Measured values as given in PMC12299576 (Viruses, 2025).
Like-named read-outs stand apart in the source and are kept apart here.

Tests used:
HTNV-76118 strain [1] = experiment: microbe, parasite or virus in culture; format: cell-based, Hantaan virus (HTNV); details: Orthohantavirus hantanense, Vero C1008, 120 h
HTNV-76118 strain [2] = experiment: microbe, parasite or virus in culture; format: cell-based, Hantaan virus (HTNV); details: Orthohantavirus hantanense, Vero C1008, read-out: EC50, 2H pretreatment
HTNV-76118 strain [3] = experiment: microbe, parasite or virus in culture; format: cell-based, Hantaan virus (HTNV); details: Orthohantavirus hantanense, Vero C1008, read-out: EC50, Post entry
HTNV-76118 strain [4] = experiment: microbe, parasite or virus in culture; format: cell-based, Hantaan virus (HTNV); details: for EC50: Orthohantavirus hantanense, Vero C1008, read-out: EC50, Virucidal
in vitro = details: African green monkey
HTNV = format: cell-based, Hantaan virus (HTNV)

SMILES | EC50 (HTNV-76118 strain [1]) | EC50 (HTNV-76118 strain [2]) | EC50 (HTNV-76118 strain [3]) | direct virucidal effect on HTNV (HTNV-76118 strain [4]) | EC50 (HTNV-76118 strain [4]) | CC50 (in vitro) | suppression of viral replication (HTNV nucleoprotein immunofluorescence) (HTNV)
NC(=O)c1ncn([C@@H]2O[C@H](CO)[C@@H](O)[C@H]2O)n1 [Ribavirin, ribavirin, reference compound] | 20.5 ± 1.63 µM | > 200 µM | 13.2 ± 0.4 µM | neither compound exhibited a direct virucidal effect | > 200 µM | > 200 µM | –
CC(C)CC(=O)c1c(O)cc(O)c2c1OC1=C(C(=O)C(C)(C)C(=O)C1(C)C)C2CC(C)C (stereo not shown) [Rhodomyrtosone B, rhodomyrtosone B] | 2.69 ± 0.32 µM | – | – | – | – | 7.44 ± 1.15 µM | –
CC(C)CC(=O)c1c(O)c2c(c3c1OC1(O)C(C(=O)C(C)(C)C(=O)C1(C)C)C3CC(C)C)OC1=C(C(=O)C(C)(C)C(=O)C1(C)C)C2CC(C)C (stereo not shown) [Callistemontrimer B, callistemontrimer B] | 2.79 ± 1.4 µM | – | – | – | – | 16.9 ± 1 µM | –
CC(C)CC(=O)c1c(O)cc2c(c1O)C(CC(C)C)C1=C(O2)C(C)(C)C(=O)C(C)(C)C1=O (stereo not shown) [Rhodomyrtone, rhodomyrtone] | 0.3 ± 0.03 µM | – | – | – | – | 5.11 ± 2.49 µM | –
CC(C)CC(=O)c1c(O)c2c(c3c1OC1(O)C(C(=O)C(C)(C)C(=O)C1(C)C)C3C(C)C)OC1=C(C(=O)C(C)(C)C(=O)C1(C)C)C2CC(C)C (stereo not shown) [Callistemontrimer A, callistemontrimer A] | 4.41 ± 3.4 µM | > 50 µM | 0.65 ± 0.45 µM | neither compound exhibited a direct virucidal effect | > 50 µM | 32.1 ± 6 µM | effectively suppressed viral replication
